The text below walks through data of US20120015907A1, “Furopyridine compounds and uses thereof” (NOVARTIS AG, priority 2010, published 2012).

Each structure is given as a SMILES string.

For one test, the target named is T1, HCV polymerase (Hepatitis C virus genotype 1b, UniProt Q9WMX2).
T1 construct: (His)6 (C)
Kind of test: biochemical. Particulars: polymerase assay of Biological Example 1; read-out: NS5B polymerase IC50.

The test system of test [1] is HCV replicon I389luc-ubi-neo/NS3-3'/ET in ET (Huh-lucubineo-ET) cells. Kind of test: Replicon assay (Biological Example 2), luciferase read-out. Format: cell-based. Particulars: Hepatitis C virus, luciferase activity 48 hours after compound addition. Summed up: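 ET cells stably carry the replicon with adaptive mutations E1202G, […] and K1846T. Compound is added 24 h after plating at 0.1 nM–50 μM final (10-point, 3-fold dilutions) with 0.5% DMSO, and luciferase is read 48 h later. EC50 comes from a Hill-equation fit of % inhibition versus no-compound control.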
(A replicon is a self-replicating genome or part of one, used to study replication in cells.)

The term IC50 denotes the concentration at which inhibition is half-maximal. In the case of `CNC(=O)c1c(-c2ccc(F)cc2)oc2nc(N(CCCCC(=O)OC)S(C)(=O)=O)c(C3CC3)cc12` [Example 26.8, methyl 5-(N-(5-cyclopropyl-2-(4-fluorophenyl)-3-(methylcarbamoyl)furo[2,3-b]pyridin-6-yl)methylsulfonamido) pentanoate], the IC50 was 0.005 µM at HCV polymerase and not above 0.1 µM in test [1].
Turning to `CNC(=O)c1c(-c2ccc(F)cc2)oc2nc(N(CCCC(=O)O)S(C)(=O)=O)c(I)cc12` [Example 18.95, 4-(N-(2-(4-fluorophenyl)-5-iodo-3-(methylcarbamoyl)furo[2,3-b]pyridin-6-yl)methylsulfonamido)butanoic acid], the figures for the IC50 (at HCV polymerase; in test [1]) were 0.112 µM and not below 5 µM, respectively.
On to `CNC(=O)c1c(-c2ccc(Cl)cc2)oc2nc(N(CCCCC(=O)O)S(C)(=O)=O)c(C3CC3)cc12` [Example 27.5, 5-(N-(2-(4-chlorophenyl)-5-cyclopropyl-3-(methylcarbamoyl)furo[2,3-b]pyridin-6-yl)methylsulfonamido) pentanoic acid], for which the IC50 on HCV polymerase was 0.001 µM; in test [1] it was not above 0.1 µM.
As to `CNC(=O)c1c(-c2ccc(C)cc2)oc2nc(N(CCCS(C)(=O)=O)S(C)(=O)=O)c(I)cc12` [Example 18.994, 5-iodo-N-methyl-6-(N-(3-(methylsulfonyl)propyl)methylsulfonamido)-2-p-tolylfuro[2,3-b]pyridine-3-carboxamide], the figures for the IC50 (on HCV polymerase; in test [1]) were 0.014 µM and not above 0.1 µM, respectively.
Regarding `CNC(=O)c1c(-c2ccc(F)cc2)oc2nc3c(cc12)CCCCCN3S(C)(=O)=O` [Example 36, 2-(4-Fluoro-phenyl)-10-methanesulfonyl-5,6,7,8,9,10-hexahydro-1-oxa-10,11-diaza-cycloocta[f]indene-3-carboxylic acid methylamide], the IC50 on HCV polymerase was 0.05 µM; in test [1], not above 0.1 µM.
For the compound `CNC(=O)c1c(-c2ccc(Cl)cc2)oc2nc(N(CCC[C@@H]3CCCS3(=O)=O)S(C)(=O)=O)c(C3CC3)cc12` [Example 24.8, 2-(4-Chloro-phenyl)-5-cyclopropyl-6-{[3-((R)-1,1-dioxo-tetrahydrothiophen-2-yl)-propyl]-methanesulfonyl-amino}-furo[2,3-b]pyridine-3-carboxylic acid methylamide], the values for the IC50 (at HCV polymerase; in test [1]) were 0.001 µM and not above 0.1 µM, respectively.
`CCc1ccc(-c2oc3nc(N(CCCCC(=O)O)S(C)(=O)=O)c(C4CC4)cc3c2C(=O)NC)cc1` [Example 27.8, 5-(N-(5-cyclopropyl-2-(4-ethylphenyl)-3-(methylcarbamoyl)furo[2,3-b]pyridin-6-yl)methylsulfonamido) pentanoic acid]: the IC50 on HCV polymerase was 0.001 µM; in test [1], not above 0.1 µM.
